{"source": "patent US8614254B2", "about": "“Methods and compositions for treating thalamocortical dysrhythmia” (New York University, priority 2007, dated 2013)", "key": {"EEG frequency profile": {"tested_on": "EEG frequency profile", "test": "EEG recording with Fast Fourier transform frequency analysis in wild type and alpha-1A knockout mice", "type": "in vivo, mouse", "experimental": "Alpha1A knockout mice, which have an enhanced Cav3 calcium channel activity, develop progressive neurological symptoms resembling Thalamo-cortical Dysrhythmia characterized specifically by ataxia and dystonia, before dying, around four weeks after birth (Jun et al. (1999) Proc. Natl. Acad. Sci. USA. 96(26):15245-50).\nWhen a Fast Fourier transform analysis is performed in two segments of 1 second each (FIG. 7A, segments a and b) from the same wild type trace, a wide range of frequencies is observed. Importantly, the presence of high frequencies in the range of gamma band is observed (FIG. 7A, red arrows). In contrast, an alpha-1A knockout mouse presents a totally different EEG recoding.\nThe administration of 1-octanol (Sinton et al., (1989) Pflügers Archiv 414: 31-36) in wild types versus knockout mice allows the quantification of the effects of such a drug in the high and low frequencies in the EEG. Since knockout mice only present low frequencies, a dose-response curve of 1-octanol can be easily prepared. Also, an augmentation in the ratio of high/low frequencies is expected for the wild types treated with 1-octanol.\nAnalysis of the frequency components plotted in blue bars show a decrease in the low frequencies (0-15 Hz) and an increase in hi frequencies (30-45 Hz) consistent with the fact that Cav3 channels are responsible for low frequencies and their block produces an increase in high frequency."}, "[1]": {"tested_on": "low threshold activated Cav3 calcium currents (Cav3.1)", "test": "Whole-cell voltage-clamp patch recording of low threshold activated calcium currents in ventrobasal thalamic neurons of brain slices", "type": "cell-based, rodents (Long-Evans rats, Harley guinea pigs)", "settings": "for Cav3 peak currents (I-V curve): FIG. 2B"}, "[2]": {"tested_on": "thalamic neurons (low threshold spikes, low frequency oscillations)", "type": "cell-based"}, "[3]": {"tested_on": "high voltage activated calcium currents", "test": "Whole-cell voltage-clamp patch recording, slow component when low and high voltage activated calcium currents are open", "type": "cell-based, rodents (Long-Evans rats, Harley guinea pigs)", "settings": "10 μM; −10 mV, both low and high voltage activated calcium currents open; FIG. 1B"}, "[4]": {"tested_on": "thalamic neurons (high-frequency 40 Hz subthreshold oscillation)", "type": "cell-based, mouse"}, "[5]": {"tested_on": "thalamic neurons (low threshold spike)", "type": "cell-based, mouse"}, "[6]": {"settings": "50 μM, wild-type mouse, TTX 2 μM"}, "[7]": {"settings": "wild-type mice, i.p., 0.2 mg/kg, FIG. 7D"}}, "data": [{"smiles": "CCCCCCCCO", "note": "[1-octanol]", "values": [{"measurement": "ratio of high/low frequencies in the EEG", "setting": "EEG frequency profile; wild types treated, expected", "result": "augmentation"}, {"measurement": "block of peak fast activated Cav3.1 calcium current (ICa) amplitude", "setting": "[1]; 10 μM, holding level −30 mV where only low voltage activated calcium currents can be open, FIG. 1A", "result": "about 30%"}, {"measurement": "specificity of block of low threshold activated Cav3-type currents", "setting": "[1]; ventrobasal thalamic neurons, conclusion from FIG. 1A and 1B", "result": "specifically block"}, {"measurement": "peak of low threshold spikes activated using ramps of current", "setting": "[2]; 50 μM, FIG. 4A and 4B", "result": "further decreases"}, {"measurement": "membrane resistance", "setting": "[2]; after blocking Cav3 calcium currents, same amplitude current pulse", "result": "increments"}, {"measurement": "effect on the low threshold spikes", "setting": "[2]; current clamp, FIG. 4A and 4B", "result": "concentration-dependent"}, {"measurement": "slow component that remains open at the end of the depolarized pulse", "setting": "[3]", "result": "leaving unchanged"}]}, {"smiles": "CCCCCCC(C)O", "note": "(centres unmarked) [2-octanol]", "values": [{"measurement": "Cav3 peak currents (I-V curve)", "setting": "[1]; 10 μM", "result": "partially reduced"}, {"measurement": "Cav3 peak currents (I-V curve)", "setting": "[1]; 100 μM", "result": "almost abolished"}, {"measurement": "low threshold activated Cav3 calcium currents", "setting": "[1]; 100 μM, voltage clamp, high Cs/QX314 intracellular solution", "result": "completely abolished"}, {"measurement": "Cav3 calcium currents peak with increasing concentrations", "setting": "[1]; holding −70 mV, steps to −60, −30, −20 and −10 mV, FIG. 2A", "result": "progressive reduction"}, {"measurement": "thalamic low frequency oscillatory activity (low threshold spikes firing at 2 Hz)", "setting": "[2]; 10 μM, five min. of perfusion, FIG. 3A", "result": "complete abolishment"}, {"measurement": "reversibility of the abolishment of oscillatory activity", "setting": "[2]; after 40 min. of washout", "result": "partially reversible"}, {"measurement": "low threshold spike", "setting": "[2]; after TTX removal from the external solution, FIG. 5A and 5B", "result": "block"}, {"measurement": "frequency of action potentials of the thalamic neurons", "setting": "[2]; after TTX removal, after block of low threshold spike, increment in input resistance", "result": "notably increased"}]}, {"smiles": "CCCCCCCCO", "note": "[octanol]", "values": [{"measurement": "40 Hz oscillations on depolarizing square pulses", "setting": "[4]; [6]", "result": "are observed"}, {"measurement": "high-frequency 40 Hz oscillations", "setting": "[4]; alpha1A-KO mouse, before or after application", "result": "no high-frequency 40 Hz oscillations are present"}, {"measurement": "high frequency oscillations in the thalamic neurons", "setting": "[4]; summary of the examples", "result": "does not appear to affect"}, {"measurement": "EEG hi frequencies (30-45 Hz)", "setting": "EEG frequency profile; [7]", "result": "increase"}, {"measurement": "EEG low frequencies (0-15 Hz)", "setting": "EEG frequency profile; [7]", "result": "decrease"}, {"measurement": "low threshold activated Cav3 calcium currents of neurons of the thalamic Ventrobasal nucleus", "setting": "[1]; clinical concentrations at micromolar level, summary of the examples", "result": "significantly reversibly block"}, {"measurement": "rebound low threshold spike", "setting": "[5]; [6]", "result": "abolished"}, {"measurement": "low threshold spike", "setting": "[5]; alpha1A-KO mouse, TTX, FIG. 6B", "result": "blocked"}]}]}
